Results taken from patent US12435051B2, “Dual modulator of mGluR5 and 5-HT2A receptor, and use thereof” (Vivozon Inc., priority 2020, dated 2025).
Read-outs that look alike come from different tables or passages of the source.

What was measured:
[1] = test system: spinal nerve ligation model (neuropathic pain model); experiment: Confirmation of synergistic analgesic effect via dual action (spinal nerve ligation model); assay type: in vivo; settings: sub-effective doses, FIG. 1
Description: The confirmation of the synergistic analgesic effect via the dual action of mGluR5 and 5-HT2AR was carried out by the use of representative mGluR5 antagonist MPEP (2-methyl-6-(phenylethynyl)pyridine) and 5-HT2AR antagonist MDL11,939 in a “spinal nerve ligation model” which is a neuropathic pain model.
In order to measure the analgesic effect of MPEP and MDL11,939, when administered alone or simultaneously together, the reversibility rate of pain relieving parameter (% reversal) was calculated according to the method of Experimental Example 4 and the results are represented in FIG. 1.

[2] = target: T1, mGluR5 (Homo sapiens, UniProt P41594); experiment: Fluorescence-based Ca2+ mobilization assay; assay type: cell-based; settings: HEK293 cells overexpressing mGluR5; L-glutamate at EC80
T1 construct: expressed in transfected cells; host or cells: HEK293
How it was run: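 HEK293 cells stably overexpressing mGluR5, dye-loaded 60 min at 37 °C, then preincubated with compound 30 min at room temperature in the dark. Ca2+ response to L-glutamate at EC80 read on FLIPR for 2 min. Signal normalised to glutamate (100%) and vehicle (0%); IC50 from % inhibition.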

[3] = test system: physical (tactile) allodynia in spinal nerve ligation model; experiment: Analgesic efficacy experiment using animal model (Chung model, spinal nerve ligation); assay type: in vivo, Sprague-Dawley rats; settings: for inhibition in vivo at 12.5 mg/kg: 12.5 mpk; for inhibition in vivo at 25 mg/kg: 25 mpk
Description: The Chung model (spinal nerve ligation model) is a representative animal model to study neuropathic pain and is widely accepted as a gold standard for an animal pain model by global pharmaceutical companies around the world.
In this experiment, male Sprague-Dawley rats (100-120 g) purchased from Koatech (Pyeongtaek-si, Gyeonggi-do) were used. Rats were kept in a room maintained at constant temperature and humidity with a 12 hour light-dark cycle. Rats were allowed to eat and drink freely during the experiment.
For the Chung surgery, rats were anesthetized by isoflurane inhalation and the left lumbar nerves L5 and L6 were tightly tied with a suture thread (6-0 silk thread) at the end of the dorsal ganglion and at a front of an entrance to the sciatic nerve according to the article (Kim and Chung (1992), Pain 50(3):355-63). After suturing the incision, the rats were recovered for 2 weeks in the controlled maintenance room to induce physical allodynia in the left hind paw of the rat. To measure physical (tactile) allodynia, the rats were placed in a cage with a wire mesh on the bottom. Stimuli of increasing intensity (using the von Frey filaments in a range of 0.41 to 15.8 g) were placed on the plantar surface on the side of the nerve injury. The stimulus intensity at which the pain response (abrupt lifting, licking or sucking of the foot) was induced was recorded while applying gradual increment of stimuli. As described in the study of Chaplan et al. (1994) (Chaplan et al. (1994) J. Neurosci. Methods 53(1):55-63), the paw withdrawal threshold (PWT) was determined by increasing or decreasing continuous stimulus intensity, and the result was analyzed by applying Dixon's up-down method. Only rats showing no behavior dysfunction (e.g., feet dragging or dropping) were selected and included in the study, and the PWT of the rats used was 3.16 g or less.
After measuring the degree of basic reaction before drug injection, each compound and solvent were injected by oral administration (12.5-100 mg/kg), and the measurement was repeated at regular time intervals (60 and 120 minutes) after the drug was injected.
The experimenter conducted the PWT measurement in a blind condition not knowing which rat was administered with which drug. The control group was administered with gabapentin (65 mg/kg, intraperitoneal administration), and was randomly mixed during the measurement. Statistical analysis was performed on the measured pain response threshold by calculating the reversal rate (% reversal) from pain in Equation 1 below. […] Pain reversal rate (% reversal)=[(PWT after drug administration)−(PWT before drug administration)]*100/[(15 g, Estimated PWT in normal animals)−(PWT before drug administration)] [Equation 1]
The PWT used in this time is a value obtained by multiplying the gram, the unit of “force” measure, by 10,000, and taking the logarithm, which is a method generally used in academia.
Each experiment consisted of the compound group, the solvent group of the compound and the gabapentin (GBP) group as positive control group. As solvent of the compound, 0.5% HPMC (hydroxypropylmethyl cellulose) was used.

[4] = target: T2, human 5-HT2AR (Homo sapiens, UniProt P28223); experiment: HTRF-based IP1 accumulation assay (5-HT2AR antagonistic effect); assay type: cell-based; settings: HEK293 cells overexpressing human 5-HT2AR; serotonin at EC80
T2 construct: expressed in transfected cells; host or cells: HEK293
How it was run: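 HEK293 cells stably overexpressing human 5-HT2AR were pre-incubated with compound (top 10 μM, serial dilutions, LiCl buffer) 10 min at room temperature, then stimulated with EC80 serotonin 30 min at 37 °C. IP1 accumulation was read by HTRF; IC50s came from activity normalized to serotonin and IP1 controls.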

[5] = Rattus norvegicus, po, 1 h, read-out: % reversal (1 h)
[6] = Rattus norvegicus, po, 2 h, read-out: % reversal (2 h)
[7] = rat, oral, 50 mpk, 1 h, read-out: % reversal (1 h)
[8] = rat, oral, 50 mpk, 2 h, read-out: % reversal (2 h)
[9] = rat, oral, 100 mpk, 1 h, read-out: % reversal (1 h)
[10] = rat, oral, 100 mpk, 2 h, read-out: % reversal (2 h)
[11] = rat, oral, 1 h, read-out: % reversal (1 h)
[12] = rat, oral, 2 h, read-out: % reversal (2 h)

T2 sequence (P28223 whole entry): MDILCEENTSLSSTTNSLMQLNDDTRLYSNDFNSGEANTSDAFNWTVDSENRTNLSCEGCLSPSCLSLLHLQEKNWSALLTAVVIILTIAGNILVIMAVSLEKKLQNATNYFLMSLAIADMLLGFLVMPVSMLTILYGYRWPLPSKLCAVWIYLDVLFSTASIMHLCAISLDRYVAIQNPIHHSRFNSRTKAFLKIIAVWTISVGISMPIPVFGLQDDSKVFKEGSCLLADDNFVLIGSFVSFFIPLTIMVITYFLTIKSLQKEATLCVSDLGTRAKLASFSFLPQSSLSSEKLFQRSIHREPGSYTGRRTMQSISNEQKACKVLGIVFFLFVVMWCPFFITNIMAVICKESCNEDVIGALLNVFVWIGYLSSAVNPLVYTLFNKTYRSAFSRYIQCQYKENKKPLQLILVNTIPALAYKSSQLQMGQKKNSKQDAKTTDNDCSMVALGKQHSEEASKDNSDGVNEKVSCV
T1 sequence (P41594 21-1212): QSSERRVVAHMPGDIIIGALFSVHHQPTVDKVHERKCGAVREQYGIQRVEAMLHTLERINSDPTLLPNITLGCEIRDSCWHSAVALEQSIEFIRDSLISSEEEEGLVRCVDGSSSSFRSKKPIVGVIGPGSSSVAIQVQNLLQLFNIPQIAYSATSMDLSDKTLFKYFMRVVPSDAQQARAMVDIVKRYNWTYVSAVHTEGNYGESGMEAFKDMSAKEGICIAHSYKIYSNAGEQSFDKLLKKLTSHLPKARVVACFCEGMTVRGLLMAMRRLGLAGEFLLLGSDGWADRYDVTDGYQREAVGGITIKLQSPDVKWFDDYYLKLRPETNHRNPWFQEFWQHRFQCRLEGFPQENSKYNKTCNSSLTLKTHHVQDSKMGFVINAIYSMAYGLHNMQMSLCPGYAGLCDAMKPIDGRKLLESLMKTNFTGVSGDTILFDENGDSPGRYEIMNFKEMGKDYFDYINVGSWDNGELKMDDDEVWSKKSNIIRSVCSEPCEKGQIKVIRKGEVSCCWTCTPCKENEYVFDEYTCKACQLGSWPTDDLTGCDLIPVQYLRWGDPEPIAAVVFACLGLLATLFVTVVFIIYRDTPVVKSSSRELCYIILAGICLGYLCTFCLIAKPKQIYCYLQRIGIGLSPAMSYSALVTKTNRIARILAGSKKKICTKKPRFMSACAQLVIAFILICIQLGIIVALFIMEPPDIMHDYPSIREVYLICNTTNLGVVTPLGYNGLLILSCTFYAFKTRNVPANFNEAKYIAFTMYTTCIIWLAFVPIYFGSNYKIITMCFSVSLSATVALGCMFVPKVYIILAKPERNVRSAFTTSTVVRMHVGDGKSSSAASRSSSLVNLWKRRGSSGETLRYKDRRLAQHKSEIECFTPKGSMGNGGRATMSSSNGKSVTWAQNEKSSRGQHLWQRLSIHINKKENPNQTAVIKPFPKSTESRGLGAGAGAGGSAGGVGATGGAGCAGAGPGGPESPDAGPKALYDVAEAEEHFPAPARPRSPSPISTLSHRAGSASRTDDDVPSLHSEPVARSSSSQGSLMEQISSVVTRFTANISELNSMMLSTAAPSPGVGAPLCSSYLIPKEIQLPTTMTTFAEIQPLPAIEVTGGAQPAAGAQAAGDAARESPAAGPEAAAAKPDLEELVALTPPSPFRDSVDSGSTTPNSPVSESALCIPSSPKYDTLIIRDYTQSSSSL

Row | Structure (SMILES) | IC50 [2] [µM] | IC50 [4] [µM] | inhibition in vivo at 50 mg/kg [3, 7] [%] | inhibition in vivo at 50 mg/kg [3, 8] [%] | other results
1 | Cc1cccc(C#Cc2ccccc2)n1 [MPEP, 2-methyl-6-(phenylethynyl)pyridine] | – | – | – | – | analgesic effect (% reversal), administered alone [1]: did not show a significant analgesic effect
2 | OC(c1ccccc1)C1CCN(CCc2ccccc2)CC1 (stereo not shown) [MDL11,939] | – | – | – | – | analgesic effect (% reversal), administered alone [1]: did not show a significant analgesic effect
3 | O=C(NCC1CC(F)(F)C1)c1ccc(C#Cc2ccccc2F)cc1 [Example 56, N-((3,3-difluorocyclobutyl)methyl)-4-((2-fluorophenyl)ethynyl)benzamide] | < 0.1 | 0.1 to 0.5 | – | – | inhibition in vivo at 50 mg/kg [3, 5]: 47.4%; inhibition in vivo at 50 mg/kg [3, 6]: 43.6%
4 | O=C(NCC1(NC2CC2)CCC1)c1ccc(C#Cc2ccncc2)cc1F [Example 10, N-((1-(cyclopropylamino)cyclobutyl)methyl)-2-fluoro-4-(pyridin-4-ylethynyl)benzamide] | 0.1 to 0.5 | 0.1 to 0.5 | 44.9 | 36.1 | –
5 | O=C(NCC1CCOCC1)c1ccc(C#Cc2ccccc2F)cc1 [Example 27, 4-((2-fluorophenyl)ethynyl)-N-((tetrahydro-2H-pyran-4-yl)methyl)benzamide] | < 0.1 | 0.1 to 0.5 | 70.3 | 66.3 | –
6 | CC(NC(=O)c1ccc(C#Cc2ccccc2F)cc1)C1CCOCC1 (stereo not shown) [Example 42, 4-((2-fluorophenyl)ethynyl)-N-(1-(tetrahydro-2H-pyran-4-yl)ethyl)benzamide] | < 0.1 | 0.1 to 0.5 | – | – | inhibition in vivo at 100 mg/kg [3, 9]: 82.9%; inhibition in vivo at 100 mg/kg [3, 10]: 88.1%
7 | O=C(NCC1(NC2CC2)CCCC1)c1ccc(C#Cc2ccncc2)cc1 [Example 2, N-((1-(cyclopropylamino)cyclopentyl)methyl)-4-(pyridin-4-ylethynyl)benzamide] | 0.5 to 1 | < 0.1 | – | – | inhibition in vivo at 12.5 mg/kg [3, 11]: 3.91%; inhibition in vivo at 12.5 mg/kg [3, 12]: 28.1%
8 | CC1(CNC(=O)c2ccc(C#Cc3ccc(F)cc3)cc2)COC1 [Example 83, 4-((4-fluorophenyl)ethynyl)-N-((3-methyloxetan-3-yl)methyl)benzamide] | < 0.1 | 0.1 to 0.5 | – | – | inhibition in vivo at 25 mg/kg [3, 11]: 55%; inhibition in vivo at 25 mg/kg [3, 12]: 67.8%
9 | O=C(NC[C@@H]1CCCO1)c1ccc(C#Cc2ccccc2F)cc1 [Example 46, (S)-4-((2-fluorophenyl)ethynyl)-N-((tetrahydrofuran-2-yl)methyl)benzamide] | 0.1 to 0.5 | 0.1 to 0.5 | – | – | inhibition in vivo at 100 mg/kg [3, 9]: 73%; inhibition in vivo at 100 mg/kg [3, 10]: 99.8%
10 | CCC1(CNC(=O)c2ccc(C#Cc3ccccc3F)cc2)COC1 [Example 72, N-((3-ethyloxetan-3-yl)methyl)-4-((2-fluorophenyl)ethynyl)benzamide] | < 0.1 | 0.1 to 0.5 | 41.9 | 71.8 | –
11 | O=C(NCC1(NC2CC2)CCCC1)c1ccc(C#Cc2ccccc2F)cc1 [Example 11, N-((1-(cyclopropylamino)cyclopentyl)methyl)-4-((2-fluorophenyl)ethynyl)benzamide] | 0.1 to 0.5 | < 0.1 | – | – | inhibition in vivo at 100 mg/kg [3, 9]: 58.7%; inhibition in vivo at 100 mg/kg [3, 10]: 57.4%
12 | CC(C)NC1(CNC(=O)c2ccc(C#Cc3ccccc3F)cc2)CCCCC1 [Example 25, 4-((2-fluorophenyl)ethynyl)-N-((1-(isopropylamino)cyclohexyl)methyl)benzamide] | 0.1 to 0.5 | < 0.1 | – | – | inhibition in vivo at 25 mg/kg [3, 11]: 36.5%; inhibition in vivo at 25 mg/kg [3, 12]: 36.6%
13 | COC1(CNC(=O)c2ccc(C#Cc3ccccc3F)cc2)CCCCC1 [Example 65, 4-((2-fluorophenyl)ethynyl)-N-((1-methoxycyclohexyl)methyl)benzamide] | < 0.1 | 0.5 to 1 | – | – | inhibition in vivo at 50 mg/kg [3, 5]: 34%; inhibition in vivo at 50 mg/kg [3, 6]: 80.8%
14 | O=C(NCC1CCC(F)(F)CC1)c1ccc(C#Cc2ccncc2)cc1 [Example 88, N-((4,4-difluorocyclohexyl)methyl)-4-(pyridin-4-ylethynyl)benzamide] | < 0.1 | 0.5 to 1 | 97.8 | 110 | –
15 | O=C(NCC1(NC2CC2)CCCC1)c1ccc(C#Cc2ccc(F)cn2)cc1 [Example 3, N-((1-(cyclopropylamino)cyclopentyl)methyl)-4-((5-fluoropyridin-2-yl)ethynyl)benzamide] | 0.5 to 1 | 0.1 to 0.5 | 59 | 87.9 | –
16 | O=C(NCC1(NC2CC2)CCCCCC1)c1ccc(C#Cc2ccccn2)cc1 [Example 1, N-((1-(cyclopropylamino)cycloheptyl)methyl)-4-(pyridin-2-ylethynyl)benzamide] | 1 to 2 | 0.1 to 0.5 | – | – | inhibition in vivo at 100 mg/kg [3, 9]: 60.5%; inhibition in vivo at 100 mg/kg [3, 10]: 85.7%
17 | O=C(NCC1CCC(F)(F)CC1)c1ccc(C#Cc2ccccc2F)cc1 [Example 39, N-((4,4-difluorocyclohexyl)methyl)-4-((2-fluorophenyl)ethynyl)benzamide] | < 0.1 | < 0.1 | – | – | inhibition in vivo at 100 mg/kg [3, 5]: 25.4%; inhibition in vivo at 100 mg/kg [3, 6]: 33.5%
18 | O=C(NCC1(NC2CC2)CCCCCC1)c1ccc(C#Cc2ccncc2F)cc1 [Example 16, N-((1-(cyclopropylamino)cycloheptyl)methyl)-4-((3-fluoropyridin-4-yl)ethynyl)benzamide] | 0.5 to 1 | 0.1 to 0.5 | 61 | 95.8 | –
19 | O=C(NC[C@H]1CCCO1)c1ccc(C#Cc2ccccc2F)cc1 [Example 45, (R)-4-((2-fluorophenyl)ethynyl)-N-((tetrahydrofuran-2-yl)methyl)benzamide] | < 0.1 | 0.1 to 0.5 | 77.7 | 50.6 | –
